# Assay results as given in patent US20250195530A1, “POLQ INHIBITORS” (ASTRAZENECA AB, priority 2022, published 2025).
# System: DLD-1 BRCA2−/− cells
# Assay: Homologous recombination synthetic lethal inhibition of proliferation, DLD-1 BRCA2-/- (Cell Titre Glo 3D)
# Type: cell-based
# Settings: Homo sapiens, DLD-1, DLD-1 BRCA2-/- proliferation; column head only partly shown; read-out: POLQ PD Prolif Lumin (converted)
# In short: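 Wild-type DLD-1 serves as the control for non-specific toxicity, and BRCA2-null DLD-1 as the homologous-recombination-deficient line. Both grew with compound from 10 μM down to 0.51 nM, re-dosed after 6 days. Luminescent ATP content (CellTiter-Glo 3D) was read after 7 or 12 days, respectively, to give IC50 values.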
row,SMILES,IC50 [nM]
1,"Cc1ccnc(Cn2c(-c3ccc(N4CCNCC4=O)cc3Cl)nc3c(OC4(C)CC4)ncnc32)c1 [Example T202, 1-(3-chloro-4-(6-(1-methylcyclopropoxy)-9-((4-methylpyridin-2-yl)methyl)-9H-purin-8-yl)phenyl)piperazin-2-one]",2510
2,"Cc1ccnc(Cn2c(-c3ccc(C(=O)NC(C)C)cc3Cl)nc3c(OC4(C)CC4)ncnc32)c1 [Example T211, 3-chloro-N-isopropyl-4-(6-(1-methylcyclopropoxy)-9-((4-methylpyridin-2-yl)methyl)-9H-purin-8-yl)benzamide]",501
3,"CC(=O)NCCc1ccc(-c2nc3c(OC4(C)CC4)ncnc3n2Cc2cc(C)ccn2)c(Cl)c1 [Example T212, N-(3-chloro-4-(6-(1-methylcyclopropoxy)-9-((4-methylpyridin-2-yl)methyl)-9H-purin-8-yl)phenethyl)acetamide]",398
4,"CCNC(=O)Cc1ccc(-c2nc3c(OC4(C)CC4)ncnc3n2Cc2cc(C)ccn2)c(Cl)c1 [Example T213, 2-(3-chloro-4-(6-(1-methylcyclopropoxy)-9-((4-methylpyridin-2-yl)methyl)-9H-purin-8-yl)phenyl)-N-ethylacetamide]",251
5,"CNC(=O)CCc1ccc(-c2nc3c(OC4(C)CC4)ncnc3n2Cc2cc(C)ccn2)c(Cl)c1 [Example T214, 3-(3-chloro-4-(6-(1-methylcyclopropoxy)-9-((4-methylpyridin-2-yl)methyl)-9H-purin-8-yl)phenyl)-N-methylpropanamide]",316
6,"Cc1ccnc(Cn2c(-c3ccc(OCC(=O)N(C)C)cc3Cl)nc3c(OC4(C)CC4)ncnc32)c1 [Example T216, 2-(3-chloro-4-(6-(1-methylcyclopropoxy)-9-((4-methylpyridin-2-yl)methyl)-9H-purin-8-yl)phenoxy)-N,N-dimethylacetamide]",316

# Same assay, conditions: Homo sapiens, DLD-1, first proliferation column (c5); DLD-1 BRCA2-/-; read-out: POLQ PD Prolif Lumin (converted)
row,SMILES,IC50 [nM]
1,"C[C@H](COc1cccc(-c2nc3c(OC4(C)CC4)ncnc3n2Cc2cccc(Cl)c2)c1Cl)C(=O)O [Example T159, (R)-3-(2-chloro-3-(9-(3-chlorobenzyl)-6-(1-methylcyclopropoxy)-9H-purin-8-yl)phenoxy)-2-methylpropanoic acid]",126
2,"C[C@@H](COc1cccc(-c2nc3c(OC4(C)CC4)ncnc3n2Cc2cccc(Cl)c2)c1Cl)C(=O)O [Example T160, (S)-3-(2-chloro-3-(9-(3-chlorobenzyl)-6-(1-methylcyclopropoxy)-9H-purin-8-yl)phenoxy)-2-methylpropanoic acid]",200
3,"CC1(Oc2ncnc3c2nc(-c2cccc(OCCOCC(=O)O)c2Cl)n3Cc2cccc(Cl)c2)CC1 [Example T162, 2-(2-(2-chloro-3-(9-(3-chlorobenzyl)-6-(1-methylcyclopropoxy)-9H-purin-8-yl)phenoxy)ethoxy)acetic acid]",126
4,"CC1(Oc2ncnc3c2nc(-c2cccc(OCCCc4nn[nH]n4)c2Cl)n3Cc2cccc(Cl)c2)CC1 [Example T163, 8-(3-(3-(2H-tetrazol-5-yl)propoxy)-2-chlorophenyl)-9-(3-chlorobenzyl)-6-(1-methylcyclopropoxy)-9H-purine]",251
5,"CC1(Oc2ncnc3c2nc(-c2ccc(OCCCc4nnn[nH]4)cc2Cl)n3Cc2cccc(Cl)c2)CC1 [Example T164, 8-(4-(3-(1H-tetrazol-5-yl)propoxy)-2-chlorophenyl)-9-(3-chlorobenzyl)-6-(1-methylcyclopropoxy)-9H-purine]",794
6,"Cc1ccnc(Cn2c(-c3ccc(CC(=O)NCC(F)F)cc3Cl)nc3c(OC4(C)CC4)ncnc32)c1 [Example T165, 2-(3-chloro-4-(6-(1-methylcyclopropoxy)-9-((4-methylpyridin-2-yl)methyl)-9H-purin-8-yl)phenyl)-N-(2,2-difluoroethyl)acetamide]",100
7,"Cc1ccnc(Cn2c(-c3ccc(OCC(=O)NCC(F)F)cc3Cl)nc3c(OC4(C)CC4)ncnc32)c1 [Example T166, 2-(3-chloro-4-(6-(1-methylcyclopropoxy)-9-((4-methylpyridin-2-yl)methyl)-9H-purin-8-yl)phenoxy)-N-(2,2-difluoroethyl)acetamide]",316
8,"Cc1cccc(Cn2c(-c3ccc(OCCC(=O)O)cc3Cl)nc3c(OC4(C)CC4)ncnc32)c1 [Example T167, 3-(3-chloro-4-(9-(3-methylbenzyl)-6-(1-methylcyclopropoxy)-9H-purin-8-yl)phenoxy)propanoic acid]",794
9,"Cc1ccccc1Cn1c(-c2ccc(OCCC(=O)O)cc2Cl)nc2c(OC3(C)CC3)ncnc21 [Example T168, 3-(3-chloro-4-(9-(2-methylbenzyl)-6-(1-methylcyclopropoxy)-9H-purin-8-yl)phenoxy)propanoic acid]",1260
10,"Cc1ccnc(Cn2c(-c3ccc(C(=O)NC4CC4)cc3Cl)nc3c(OC4(C)CC4)ncnc32)c1 [Example T170, 3-chloro-N-cyclopropyl-4-(6-(1-methylcyclopropoxy)-9-((4-methylpyridin-2-yl)methyl)-9H-purin-8-yl)benzamide]",631
11,"Cc1ccnc(Cn2c(-c3ccc(C(=O)NC4COC4)cc3Cl)nc3c(OC4(C)CC4)ncnc32)c1 [Example T177, 3-chloro-4-(6-(1-methylcyclopropoxy)-9-((4-methylpyridin-2-yl)methyl)-9H-purin-8-yl)-N-(oxetan-3-yl)benzamide]",1000
12,"Cc1ccnc(Cn2c(-c3ccc(C(=O)N4CC(O)C4)cc3Cl)nc3c(OC4(C)CC4)ncnc32)c1 [Example T180, (3-chloro-4-(6-(1-methylcyclopropoxy)-9-((4-methylpyridin-2-yl)methyl)-9H-purin-8-yl)phenyl)(3-hydroxyazetidin-1-yl)methanone]",1000
13,"Cc1ccnc(Cn2c(-c3ccc(N4CCOCC4=O)cc3Cl)nc3c(OC4(C)CC4)ncnc32)c1 [Example T182, 4-(3-chloro-4-(6-(1-methylcyclopropoxy)-9-((4-methylpyridin-2-yl)methyl)-9H-purin-8-yl)phenyl)morpholin-3-one]",631
14,"Cc1ccnc(Cn2c(-c3ccc(O[C@H]4CNC(=O)C4)cc3Cl)nc3c(OC4(C)CC4)ncnc32)c1 [Example T183, (R)-4-(3-chloro-4-(6-(1-methylcyclopropoxy)-9-((4-methylpyridin-2-yl)methyl)-9H-purin-8-yl)phenoxy)pyrrolidin-2-one]",398
15,"Cc1ccnc(Cn2c(-c3ccc(O[C@@H]4CNC(=O)C4)cc3Cl)nc3c(OC4(C)CC4)ncnc32)c1 [Example T184, (S)-4-(3-chloro-4-(6-(1-methylcyclopropoxy)-9-((4-methylpyridin-2-yl)methyl)-9H-purin-8-yl)phenoxy)pyrrolidin-2-one]",251
16,"Cc1ccnc(Cn2c(-c3ccc(OC[C@H]4CNC(=O)O4)cc3Cl)nc3c(OC4(C)CC4)ncnc32)c1 [Example T188, (R)-5-((3-chloro-4-(6-(1-methylcyclopropoxy)-9-((4-methylpyridin-2-yl)methyl)-9H-purin-8-yl)phenoxy)methyl)oxazolidin-2-one]",501
17,"CC1(Oc2ncnc3c2nc(-c2ccc(OCCC(=O)NS(C)(=O)=O)cc2Cl)n3Cc2cccc(Cl)c2)CC1 [Example T189, 3-(3-chloro-4-(9-(3-chlorobenzyl)-6-(1-methylcyclopropoxy)-9H-purin-8-yl)phenoxy)-N-(methylsulfonyl)propanamide]",3980
18,"Cc1ccnc(Cn2c(-c3ccc(C(=O)NC[C@H](C)F)cc3Cl)nc3c(OC4(C)CC4)ncnc32)c1 [Example T190, (S)-3-chloro-N-(2-fluoropropyl)-4-(6-(1-methylcyclopropoxy)-9-((4-methylpyridin-2-yl)methyl)-9H-purin-8-yl)benzamide]",398
19,"Cc1ccnc(Cn2c(-c3ccc(C(=O)NCCCF)cc3Cl)nc3c(OC4(C)CC4)ncnc32)c1 [Example T191, 3-chloro-N-(3-fluoropropyl)-4-(6-(1-methylcyclopropoxy)-9-((4-methylpyridin-2-yl)methyl)-9H-purin-8-yl)benzamide]",398
20,"Cc1ccnc(Cn2c(-c3ccc(OCC4COC4)cc3Cl)nc3c(OC4(C)CC4)ncnc32)c1 [Example T193, 8-(2-chloro-4-(oxetan-3-ylmethoxy)phenyl)-6-(1-methylcyclopropoxy)-9-((4-methylpyridin-2-yl)methyl)-9H-purine]",251
21,"Cc1ccnc(Cn2c(-c3ccc(OC[C@H]4CCO4)cc3Cl)nc3c(OC4(C)CC4)ncnc32)c1 [Example T194, (R)-8-(2-chloro-4-(oxetan-2-ylmethoxy)phenyl)-6-(1-methylcyclopropoxy)-9-((4-methylpyridin-2-yl)methyl)-9H-purine]",251
22,"CNC(=O)COc1ccc(-c2nc3c(OC4(C)CC4)ncnc3n2CCc2ccccc2)c(Cl)c1 [Example T195, 2-(3-chloro-4-(6-(1-methylcyclopropoxy)-9-phenethyl-9H-purin-8-yl)phenoxy)-N-methylacetamide]",1260
23,"Cc1ccnc(Cn2c(-c3ccc(O[C@H]4CCOC4)cc3Cl)nc3c(OC4(C)CC4)ncnc32)c1 [Example T196, (S)-8-(2-chloro-4-((tetrahydrofuran-3-yl)oxy)phenyl)-6-(1-methylcyclopropoxy)-9-((4-methylpyridin-2-yl)methyl)-9H-purine]",100
24,"Cc1ccnc(Cn2c(-c3ccc(OCC4(O)COC4)cc3Cl)nc3c(OC4(C)CC4)ncnc32)c1 [Example T200, 3-((3-chloro-4-(6-(1-methylcyclopropoxy)-9-((4-methylpyridin-2-yl)methyl)-9H-purin-8-yl)phenoxy)methyl)oxetan-3-ol]",316
25,"Cc1ccnc(Cn2c(-c3ccc(N4CCNC(=O)C4)cc3Cl)nc3c(OC4(C)CC4)ncnc32)c1 [Example T201, 4-(3-chloro-4-(6-(1-methylcyclopropoxy)-9-((4-methylpyridin-2-yl)methyl)-9H-purin-8-yl)phenyl)piperazin-2-one]",501
